One data set deals with Hsp104 (Saccharomyces cerevisiae, UniProt P31539). To be noted: cited from earlier work.
For another data set, the system named is Aβm2MRF. In kind it is cell-based, S. cerevisiae.
Another data set has as its system Aβm1MRF. In kind it is cell-based, S. cerevisiae.
Data set [1] relates to AβMRF. In kind it is cell-based, S. cerevisiae.
For data set [2], the system named is AβMRF. In kind it is cell-based, S. cerevisiae. This is another data set of the same source.
Another data set concerns the target Hsp104 (yeast chaperone) (yeast S. cerevisiae, UniProt P31539 1-908). The data set can be described thus: co-immunoprecipitation from yeast lysate with anti-HA agarose beads, immunoblot with anti-Hsp104. As for the experimental part:
FIG. 7. […] Co-precipitated proteins were eluted and analyzed by immunoblotting with anti-RF and anti-Hsp104 antibodies.
Following incubation, the beads were washed three times with 0.5 ml of phosphate buffered saline containing 0.05% Tween 20 to remove the non-specifically bound proteins.

Data set [3] deals with the molecule itself. Put plainly: SDS electrophoresis (1% SDS, room temperature) and immunoblot of yeast lysates. A general note: In western blotting, separated proteins are transferred to a membrane and probed.
Data set [4] deals with the molecule itself. The data set can be described thus: self-oligomerization; SDS electrophoresis and immunoblot of yeast lysates.

Sequence of Hsp104 (yeast chaperone) (P31539 whole entry): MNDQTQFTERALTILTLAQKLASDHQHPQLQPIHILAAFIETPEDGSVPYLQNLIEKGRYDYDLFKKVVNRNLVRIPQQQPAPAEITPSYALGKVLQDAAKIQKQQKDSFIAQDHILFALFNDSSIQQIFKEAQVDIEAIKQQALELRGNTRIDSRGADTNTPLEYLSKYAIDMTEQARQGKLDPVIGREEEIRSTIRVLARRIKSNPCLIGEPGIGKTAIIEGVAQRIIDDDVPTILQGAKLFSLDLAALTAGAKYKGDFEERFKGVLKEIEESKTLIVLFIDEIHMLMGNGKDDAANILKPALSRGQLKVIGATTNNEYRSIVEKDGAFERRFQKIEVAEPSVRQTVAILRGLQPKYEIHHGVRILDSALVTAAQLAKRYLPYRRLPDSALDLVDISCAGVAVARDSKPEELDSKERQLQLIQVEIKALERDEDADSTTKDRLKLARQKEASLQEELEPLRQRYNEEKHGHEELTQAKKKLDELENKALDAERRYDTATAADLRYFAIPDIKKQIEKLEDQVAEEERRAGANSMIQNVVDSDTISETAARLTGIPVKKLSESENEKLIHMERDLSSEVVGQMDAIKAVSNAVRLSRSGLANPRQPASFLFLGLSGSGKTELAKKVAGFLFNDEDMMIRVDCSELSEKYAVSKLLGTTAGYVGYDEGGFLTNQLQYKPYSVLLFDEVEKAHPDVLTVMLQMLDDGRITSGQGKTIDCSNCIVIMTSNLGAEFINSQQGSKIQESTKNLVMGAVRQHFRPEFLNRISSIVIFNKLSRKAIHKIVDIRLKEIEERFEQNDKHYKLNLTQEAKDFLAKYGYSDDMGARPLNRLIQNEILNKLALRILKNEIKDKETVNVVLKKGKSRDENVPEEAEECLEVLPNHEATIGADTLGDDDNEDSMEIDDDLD
Sequence of Hsp104 (P31539 whole entry): as above

On to guanidine hydrochloride, for which the “ATPase activity of Hsp104” value on Hsp104 is “inhibited by millimolar concentrations”. In addition, in the data set on Aβm2MRF, the “effect on oligomers/monomers of control Aβm2MRF protein” value is “No such effect was detected”. In the data set on Aβm1MRF, the “amount of Aβm1MRF oligomers” value is reported as “dramatically increased” and the “monomeric pool of Aβm1MRF” value is on record as “depleting the monomeric pool”. For the same molecule, the “oligomerization of AβMRF in the absence of HSP104” value in the data set on AβMRF [1] is on record as “stimulated oligomerization of AβMRF”. Moreover, in the data set on AβMRF [2], the “amount of AβMRF oligomers” value was “dramatically increased” and the “monomeric pool of AβMRF” value is listed as “depleting the monomeric pool”.

B1: MRF (HA-tagged Sup35p without the 123 N-terminal amino acids, plasmid p1366) (other, yeast S. cerevisiae, UniProt P05453 124-253, looked up, not shown: small tags and cut ends)
chain: MSLNDFQKQQKQAAPKPKKTLKLVSSSGIKLANATKKVGTKPAESDKKEEEKSAETKEPTKEPTKVEEPVKKEEKPVQTEEKTEEKSELPKVEDLKISESTHNTNNANVTSADALIKEQEEEVDDEVVNDMFGGKDHVSLIFMGHVDAGKSTMGGNLLYLTGSVDKRTIEKYEREAKDAGRQGWYLSWVMDTNKEERNDGKTIEVGKAYFETEKRRYTILDAPGHKMYVSEMIGGASQADVGVLVISARKGEYETGFERGGQTREHALLAKTQGVNKMVVVVNKMDDPTVNWSKERYDQCVSNVSNFLRAIGYNIKTDVVFMPVSGYSGANLKDHVDPKECPWYTGPTLLEYLDTMNHVDRHINAPFMLPIAAKMKDLGTIVEGKIESGHIKKGQSTLLMPNKTAVEIQNIYNETENEVDMAMCGEQVKLRIKGVEEEDISPGFVLTSPKNPIKSVTKFVAQIAIVELKSIIAAGFSCVMHVHTAIEEVHIVKLLHKLEKGTNRKSKKPPAFAKKGMKVIAVLETEAPVCVETYQDYPQLGRFTLRDQGTTIAIGKIVKIAE
notes: domain: M;domain: RF; also called HA-tagged MRF; Sup35p without the N-terminal prion domain
On to B1, for which the binding result (with Hsp104 (yeast chaperone); in data set [3]) was “no binding” throughout.

B2: Aβm1MRF (Aβ42 F19,20T MRF, plasmid p1397) (other, yeast S. cerevisiae, not shown: small tags and cut ends)
chain: MDAEFRHDSGYEVHHQKLVTTAEDVGSNKGAIIGLMVGGVVIAMSLNDFQKQQKQAAPKPKKTLKLVSSSGIKLANATKKVGTKPAESDKKEEEKSAETKEPTKEPTKVEEPVKKEEKPVQTEEKTEEKSELPKVEDLKISESTHNTNNANVTSADALIKEQEEEVDDEVVNDMFGGKDHVSLIFMGHVDAGKSTMGGNLLYLTGSVDKRTIEKYEREAKDAGRQGWYLSWVMDTNKEERNDGKTIEVGKAYFETEKRRYTILDAPGHKMYVSEMIGGASQADVGVLVISARKGEYETGFERGGQTREHALLAKTQGVNKMVVVVNKMDDPTVNWSKERYDQCVSNVSNFLRAIGYNIKTDVVFMPVSGYSGANLKDHVDPKECPWYTGPTLLEYLDTMNHVDRHINAPFMLPIAAKMKDLGTIVEGKIESGHIKKGQSTLLMPNKTAVEIQNIYNETENEVDMAMCGEQVKLRIKGVEEEDISPGFVLTSPKNPIKSVTKFVAQIAIVELKSIIAAGFSCVMHVHTAIEEVHIVKLLHKLEKGTNRKSKKPPAFAKKGMKVIAVLETEAPVCVETYQDYPQLGRFTLRDQGTTIAIGKIVKIAE
notes: domain: M;domain: RF; also called Aβ^F19,20TMRF
As for B2, the binding result in data set [4] is “binds”.

The values above are taken from US20100196932A1, “Yeast Reporter System” (THE BOARD OF TRUSTEES OF THE UNIVERSITY OF ILLINOIS, priority 2006, published 2010).
